Results published in patent US20220306606A1, “MODULATOR OF CYSTIC FIBROSIS TRANSMEMBRANE CONDUCTANCE REGULATOR, PHARMACEUTICAL COMPOSITIONS, METHODS OF TREATMENT, AND PROCESS FOR MAKING THE MODULATOR” (Vertex Pharmaceuticals Incorporated, priority 2016, published 2022).
Entries after “also recorded” stand apart in the source; their conditions may differ. Read-outs that look alike come from different tables or passages of the source. Values belong to the molecule of their own block, whether it stands above or below them.

How the values were obtained:
F508del-CFTR [1] = target: T1, F508del-CFTR (Homo sapiens, UniProt P13569, DEL508-508); assay: Membrane potential optical (FLIPR) assay for F508del-CFTR modulators; format: cell-based; set-up: expressed in transfected cells; conditions: read-out: CFTRdF508 EC50
T1 sequence (P13569 with tags, fused parts or gaps DEL508-508): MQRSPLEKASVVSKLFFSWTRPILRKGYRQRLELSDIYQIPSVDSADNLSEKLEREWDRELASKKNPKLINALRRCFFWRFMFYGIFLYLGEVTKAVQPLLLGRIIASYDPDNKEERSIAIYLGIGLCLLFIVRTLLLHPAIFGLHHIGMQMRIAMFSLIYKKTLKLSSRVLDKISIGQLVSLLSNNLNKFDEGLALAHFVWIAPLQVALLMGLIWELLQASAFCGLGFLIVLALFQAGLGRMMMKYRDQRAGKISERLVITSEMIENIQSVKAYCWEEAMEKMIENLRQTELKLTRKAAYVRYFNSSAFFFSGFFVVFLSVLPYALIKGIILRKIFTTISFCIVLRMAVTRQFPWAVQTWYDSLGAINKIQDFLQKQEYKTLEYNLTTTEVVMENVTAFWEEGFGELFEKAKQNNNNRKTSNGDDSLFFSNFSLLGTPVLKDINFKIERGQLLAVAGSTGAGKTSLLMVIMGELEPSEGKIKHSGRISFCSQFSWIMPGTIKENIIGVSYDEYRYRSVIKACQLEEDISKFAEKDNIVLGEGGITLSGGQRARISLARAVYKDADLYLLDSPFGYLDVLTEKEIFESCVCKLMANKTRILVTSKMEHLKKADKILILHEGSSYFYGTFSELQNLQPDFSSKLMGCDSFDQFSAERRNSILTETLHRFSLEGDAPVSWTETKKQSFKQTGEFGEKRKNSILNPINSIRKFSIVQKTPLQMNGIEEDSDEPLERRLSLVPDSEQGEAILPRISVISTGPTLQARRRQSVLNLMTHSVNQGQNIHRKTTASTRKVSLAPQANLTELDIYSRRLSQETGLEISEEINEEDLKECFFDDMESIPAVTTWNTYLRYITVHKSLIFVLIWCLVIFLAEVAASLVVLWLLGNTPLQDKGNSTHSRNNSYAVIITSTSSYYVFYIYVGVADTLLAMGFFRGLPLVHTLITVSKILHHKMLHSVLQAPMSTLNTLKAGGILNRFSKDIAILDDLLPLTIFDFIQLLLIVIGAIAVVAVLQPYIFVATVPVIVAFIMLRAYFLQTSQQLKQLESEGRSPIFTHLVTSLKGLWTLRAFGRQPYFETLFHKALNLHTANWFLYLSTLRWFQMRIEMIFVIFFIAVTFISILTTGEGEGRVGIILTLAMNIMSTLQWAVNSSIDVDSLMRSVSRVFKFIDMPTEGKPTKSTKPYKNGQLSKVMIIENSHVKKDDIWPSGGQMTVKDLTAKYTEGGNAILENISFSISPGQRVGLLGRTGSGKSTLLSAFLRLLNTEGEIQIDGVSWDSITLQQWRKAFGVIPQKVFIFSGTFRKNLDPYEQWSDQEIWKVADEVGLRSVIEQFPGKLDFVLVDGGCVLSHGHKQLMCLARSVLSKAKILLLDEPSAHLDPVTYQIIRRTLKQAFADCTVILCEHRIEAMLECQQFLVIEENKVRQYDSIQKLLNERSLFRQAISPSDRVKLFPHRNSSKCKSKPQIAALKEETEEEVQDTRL
Source text: Membrane Potential Optical Methods for Assaying Properties of F508del-CFIR Modulators
The assay utilizes fluorescent voltage sensing dyes to measure changes in membrane potential using a fluorescent plate reader (e.g., FLIPR III, Molecular Devices, Inc.) as a readout for increase in functional F508del in NIH 3T3 cells.
5A-A1. Identification of F508del-CTTR Modulators
To identify modulators of F508del, a fluorescence based HTS assay format was developed. This HTS assay utilizes fluorescent voltage sensing dyes to measure changes in membrane potential on the FLIPR III as a measurement for increase in gating (conductance) of F508del NIH 3T3 cells.
Bath Solution #1: (in mM) NaCl 160, KCl 4.5, CaCl2 2, MgCl2 1, HEPES 10, pH 7.4 with NaOH, Glucose 10.
Chloride-free bath solution: Chloride salts in Bath Solution #1 (above) are substituted with gluconate salts.
NIH3T3 mouse fibroblasts stably expressing F508del are used for optical measurements of membrane potential. The cells are maintained at 37° C. in 5% CO2 and 90% humidity in Dulbecco's modified Eagle's medium supplemented with 2 mM glutamine, 10% fetal bovine serum, 1×NEAR, β-ME, 1×pen/strep, and 25 mM HEPES in 175 cm^2 culture flasks, For all optical assays, the cells were seeded at 12,000 cells/well in 384-well matrigel-coated plates and cultured for 18-24 hrs at 37° C. for the potentiator assay. For the correction assays, the cells are cultured at 37° C. with and without compounds for 18-24 hours.

[2] = target: T2, Human Serum Albumin (HSA) (Homo sapiens, UniProt P02768); assay: Chromatographic determination of Human Serum Albumin (HSA) binding; format: in vitro ADME; conditions: ChiralPak HSA column retention time converted to % HSA
T2 construct: purchased Sigma Aldrich 58469AST
T2 sequence (P02768 25-609): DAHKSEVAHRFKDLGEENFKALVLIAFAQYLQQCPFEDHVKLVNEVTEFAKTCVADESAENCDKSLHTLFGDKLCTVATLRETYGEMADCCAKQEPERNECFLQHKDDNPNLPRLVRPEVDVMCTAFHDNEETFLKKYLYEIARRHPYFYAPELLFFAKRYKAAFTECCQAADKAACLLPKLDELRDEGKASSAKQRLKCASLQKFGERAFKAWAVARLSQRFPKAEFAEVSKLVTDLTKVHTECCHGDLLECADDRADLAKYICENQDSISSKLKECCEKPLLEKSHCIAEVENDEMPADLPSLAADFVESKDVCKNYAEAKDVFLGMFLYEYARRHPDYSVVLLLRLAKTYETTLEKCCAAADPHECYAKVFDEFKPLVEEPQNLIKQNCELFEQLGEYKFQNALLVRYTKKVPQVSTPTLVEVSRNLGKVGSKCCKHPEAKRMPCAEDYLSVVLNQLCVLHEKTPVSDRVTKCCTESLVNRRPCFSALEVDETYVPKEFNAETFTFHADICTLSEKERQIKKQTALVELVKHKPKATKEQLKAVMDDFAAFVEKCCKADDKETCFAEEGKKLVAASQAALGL
Protocol: 5B. Chromatographic Determination of Human Serum Albumin (HSA) Assay
Chromatographic determination of Human Serum Albumin (HSA) values was performed on a UPLC-MS system using a ChiralPak® HSA column (p/n: 58469AST) from Sigma Aldrich. Mobile phase A consisted of 50 mM ammonium acetate buffer in water adjusted to pH=7.4, and mobile phase B was 2-propanol. The column compartment was kept at constant temperature of 30° C. Determination of retention time on the HSA column was performed by injecting […] of 0.5 mM of compound (in DMSO) using a linear gradient from 0%-30% B in 2.5 minutes, followed by a hold at 30%B for 2 minutes, and the final equilibration step from 30%-0% B in 1.5 minutes, for a total run time of 6 minutes. Flow rate was kept constant throughout the gradient and set to 1.8 mL/min. Compound retention time on the HSA column was converted to % HSA values according to a previously published protocol (Valko, et. al, 2003) correlating column retention times to standard plasma protein binding (PPB) values obtained from dialysis experiments. HSA data for certain compounds are summarized below in Table 8 below.
Valko, K., Nunhuck, S., Bevan, C., Abraham, M. H., Reynolds, D. P. Fast Gradient HPLC Method to Determine Compounds Binding to Human Serwn Albumin. Relationships with Octanol/Water and. Immobilized Artificial Membrane Lipophilicity. J. of Pharm. Sci. 2003, 92, 2236-2248.

Rat IV and PO PK studies = format: in vivo; conditions: male Sprague-Dawley rats, oral 3 mg/kg
Protocol: 5C. Experimental Protocol for Rat IV and PO PK Studies
The tested compound was administered to male Sprague-Dawley rats as a single nominal intravenous dose of 3.0 mg/kg as a solution in 10% NMP, 10% solutol, 15% EtOH, 35% PEG400 and 30% D5W. The tested compound was also administered to male Sprague-Dawley rats at single nominal oral dose of 3 mg/kg as a solution in 5% NMP, 30% PEG400, 10% TPGS, 5% PVP-K30 at 5 mL/kg dose volume. Analyses of plasma and dose preparations were performed using LC/MS/MS.
Plasma concentration-time profiles of the tested compound in Sprague-Dawley rats at scheduled (nominal) sampling times were analyzed by noncompartmental pharmacokinetic methods using PK function within Watson LIMS software, Version 7.4.2 (Thermo Scientific Inc, Waltham, Mass.). AUC values were calculated using the linear trapezoidal rule.

F508del-CFTR [3] = target: T1, F508del-CFTR; assay: F508del-CFTR processing and trafficking in vitro (170 to 180 kDa band); format: cell-based; set-up: CF-HBE were isolated from patients homozygous for F508del; endogenous in cells; host or cells: primary human bronchial epithelial (HBE) cells, F508del/F508del
Protocol: The CFTR protein delivered to the cell surface by Compound 1 alone or in combination with Compound II (Compound 1/Compound II) was potentiated by Compound III.
Incubation of F508del/F508del-HBE cells for 16 to 24 hours with 1 μM Compound 1 alone or in combination with […].

F508del-CFTR [4] = target: T1, F508del-CFTR; assay: Ussing chamber chloride transport in HBE cells; format: cell-based; set-up: CF-HBE were isolated from patients homozygous for F508del; endogenous in cells; host or cells: primary human bronchial epithelial (HBE) cells, F508del/F508del
Protocol: Ussing chamber experiments were performed on polarized airway epithelial cells expressing F508del to further characterize the F508del modulators identified in the optical assays. Non-CF and CF airway epithelia were isolated from bronchial tissue, cultured as previously described (Galietta, L. J. V., Lantero, S., Gazzolo, A., Sacco, O., Romano, L., Rossi, G. A., & Zegarra-Moran, O. (1998) In Vitro Cell Dev. Biol. 34, 478-481), and plated onto Costar® Snapwell™ filters that were precoated with NIH3T3-conditioned media. After four days the apical media was removed and the cells were grown at an air liquid interface for >14 days prior to use.
HBE grown on Costar® Snnapwell™ cell culture inserts were mounted in an Ussing chamber (Physiologic Instruments, Inc., San Diego, Calif.), and the transepithelial resistance and short-circuit current in the presence of a basolateral to apical […] gradient (ISC) were measured using a voltage-clamp system (Department of Bioengineering, University of Iowa, Iowa). Briefly, HBE were examined under voltage-clamp recording conditions (Vhold=0 mV) at 37° C. The basolateral solution contained (in mM) 145 NaCl, 0.83 K2HPO4, 3.3 KH2PO4, 1.2 MgCl2, 1.2 CaCl2, 10 Glucose, 10 HEPES (pH adjusted to 7.35 with NaOH) and the apical solution contained (in mM) 145 NaGluconate, 1.2 MgCl2, 1.2 CaCl2, 10 glucose, 10 HEPES (pH adjusted to 7.35 with NaOH).
5A-A2. […]

[5] = Table 6, F508del NIH 3T3 cells, assay of Example 5A-A1

Rat po % F (Rat IV and PO PK studies): 50%
Compound: C[C@@H]1CN(c2nc(-n3ccc(OCCC4(C(F)(F)F)CC4)n3)ccc2C(=O)NS(=O)(=O)c2cccc(F)c2)C(C)(C)C1 [Compound 5]

Rat po % F (Rat IV and PO PK studies): 41%
Compound: C[C@@H]1CN(c2nc(-n3ccc(OCC4(C(F)(F)F)CCC4)n3)ccc2C(=O)NS(=O)(=O)c2ccccc2)C(C)(C)C1 [Compound 10, N-(Benzenesulfonyl)-6-[3-[[1-(trifluoromethyl)cyclobutyl]methoxy]pyrazol-1-yl]-2-[(4S)-2,2,4-trimethylpyrrolidin-1-yl]pyridine-3-carboxamide]

Rat po % F (Rat IV and PO PK studies): 58%
Compound: C[C@@H]1CN(c2nc(-n3ccc(OCC4(C(F)(F)F)CC4)n3)ccc2C(=O)NS(=O)(=O)c2ccccc2)C(C)(C)C1 [Compound 14, N-(Benzeuesulfonyl)-6-[3-[[1-(trifluoromethyl)cyclopropyl]methoxy]pyrazol-1-yl]-2-[(4S)-2,2,4-trimethylpyrrolidin-1-yl]pyridine-3-carboxamide]

EC50 (F508del-CFTR [1]; [5]): < 100 nM
Compound: C[C@@H]1CN(c2nc(-n3ccc(OCC4(C(F)(F)F)CC4)n3)ccc2C(=O)NS(=O)(=O)c2ccccc2C#N)C(C)(C)C1 [Compound 26, N-(2-Cyanophenyl)sulfonyl-6-[3-[[1-(trifluoromethyl)cyclopropyl]methoxy]pyrazol-1-yl]-2-[(4S)-2,2,4-trimethylpyrrolidin-1-yl]pyridine-3-carboxamide]

EC50 (F508del-CFTR [1]; [5]): 100 to 1000 nM
Compound: C[C@@H]1CN(c2nc(-n3ccc(OCC4(C(F)(F)F)CC4)n3)ccc2C(=O)NS(=O)(=O)c2ccc(F)cc2)C(C)(C)C1 [Compound 52, N-(4-fluorophenyl)sulfonyl-6-[3-[[1-(trifluoromethyl)cyclopropyl]methoxy]pyrazol-1-yl]-2-[(4S)-2,2,4-trimethylpyrrolidin-1-yl]pyridine-3-carboxamide]

potentiation of F508del-CFTR delivered to the cell surface (F508del-CFTR [4]; CFTR delivered by Compound 1 alone or in combination with Compound II): potentiated
Compound: CC(C)(C)c1cc(C(C)(C)C)c(NC(=O)c2c[nH]c3ccccc3c2=O)cc1O [Compound III, N-(5-hydroxy-2,4-di-tert-butyl-phenyl)-4-oxo-1H-quinoline-3-carboxamide, reference compound]

The remaining lines, values behind:

Compound: CC1CC(C)(C)N2c3nc(-n4ccc(OCCC5(C(F)(F)F)CC5)n4)ccc3C(=O)OC12 (stereo not shown)
EC50 (F508del-CFTR [1]; Table 7, Compound 1 and its metabolites): > 30000 nM

Compound: C[C@@H]1CN(c2nc(-n3ccc(OCC4(C(F)(F)F)CC4)n3)ccc2C(=O)NS(=N)(=O)c2ccccc2)C(C)(C)C1 (mixture of isomers)
HSA binding [2]: 98.%

Compound: C[C@@H]1CN(c2nc(-n3ccc(OCC(C)(C)C)n3)ccc2C(=O)NS(=O)(=O)c2cccnc2N)C(C)(C)C1 [Comp. A, reference compound]
Rat po % F (Rat IV and PO PK studies): 28%

Compound: C[C@@H]1CN(c2nc(-n3ccc(OCCC4(C(F)(F)F)CC4)n3)ccc2C(=O)NS(=O)(=O)c2ccccc2)C(C)(C)C1 [Compound 1, N-(benzenesulfonyl)-6-[3-[2-[1-(trifluoromethyl)cyclopropyl]ethoxy]pyrazol-1-yl]-2-[(4S)-2,2,4-trimethylpyrrolidin-1-yl]pyridine-3-carboxamide]
steady-state levels, fold of untreated levels (F508del-CFTR [3]; F508del/F508del-HBE cells, 16 to 24 hours, 1 μM Compound 1 alone): 6.5 fold
processing and trafficking of F508del-CFTR (F508del-CFTR [3]; in vitro): CFTR corrector
chloride transport (F508del-CFTR [4]; Ussing Chamber, F508del/F508del-HBE cells, listed as Compound I): enhanced chloride transport; also recorded: additive to the effect of Compound II
Rat po % F (Rat IV and PO PK studies): 63%
